US10993983B2, “Cyclic peptide epitopes and small-molecule mimics for inducing autophagy” (TRUSTEES OF TUFTS COLLEGE, priority 2016, dated 2021)
Where no end group is shown, it is not given here. [ ]: non-standard residue; d: D form. c(FΦRRRRE) = cyclic peptide with F and E termini bonded, Φ = L-2-naphthylalanine

What was measured:
LC3 = LC3 marker assay (LC3-I to LC3-II conversion immunoblot);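 as to Activity (μM) 10, LC3 assay activity: HeLa cells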;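 as to Activity (μM) 100, LC3 assay activity: HeLa cells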;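 as to Activity (μM) 20, LC3 assay activity: HeLa cells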;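 as to Activity (μM) 30, LC3 assay activity: HeLa cells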;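 as to Activity (μM) 50, LC3 assay activity: HeLa cells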; format: cell-based; set-up: key: −: activity not reported; 0: decreased vs. WT; +: similar to WT; ++: modest increase vs. WT; +++: significant increase vs. WT; settings: for Activity (μM) 5, LC3 assay activity: 5 μM; for Activity (μM) 10, LC3 assay activity: 10 μM; for Activity (μM) 30, LC3 assay activity: 30 μM; for Activity (μM) 50, LC3 assay activity: 50 μM; for Activity (μM) 100, LC3 assay activity: 100 μM
Experimental: (§1) Cells were treated with peptide in OPTI-MEM (Thermo Scientific) acidified with 0.15% (v/v) 6N HCl for 3 hour. Cells were rinsed with Dulbecco's phosphate buffered saline (PBS) and lysed in lysis buffer (20 mM HEPES, 150 mM NaCl, 1 mM EDTA, 1% Triton X-100, protease inhibitor cocktail (Roche) on ice for 1 hour. Cell lysates were centrifuged at 16,000 g for 10 min at 4° C. and analyzed by SDS-PAGE and transferred to PVDF membranes. The membranes were blocked 5% non-fat dry milk (NFDM) in PBST (PBS+0.05% Tween-20) for 1 hour, then incubated overnight at 4° C. with primary antibody in 5% NFDM in PBST. The blots were washed with PBST and incubated with HRP-conjugated secondary antibodies diluted in 5% NFDM in PBST for 1 hour at room temperature. Membranes were washed with PBST and visualized with SuperSignal West Pico Chemiluminescent Substrate (Thermo Scientific). Semi-quantitative results were obtained by noting the lowest concentration at which both p62 degradation and LC3-I to LC3-II conversion were observed.
(§2) Compounds 1-10 were evaluated using the assays described in Examples 4 and 5. Activity for each compound was measured in the p62 degradation assay and the LC3 marker assay as described herein. The activity at each concentration of peptide is given as, for example, (0/+) where 0 would be the p62/actin assay activity and + would be the LC3 assay activity.

p62 = p62 degradation assay (p62/actin immunoblot);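 as to Activity (μM) 10, p62/actin assay activity: HeLa cells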;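 as to Activity (μM) 100, p62/actin assay activity: HeLa cells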;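 as to Activity (μM) 20, p62/actin assay activity: HeLa cells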;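 as to Activity (μM) 30, p62/actin assay activity: HeLa cells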;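 as to Activity (μM) 50, p62/actin assay activity: HeLa cells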; format: cell-based; set-up: key: −: activity not reported; 0: decreased vs. WT; +: similar to WT; ++: modest increase vs. WT; +++: significant increase vs. WT; settings: for Activity (μM) 5, p62/actin assay activity: 5 μM; for Activity (μM) 10, p62/actin assay activity: 10 μM; for Activity (μM) 30, p62/actin assay activity: 30 μM; for Activity (μM) 50, p62/actin assay activity: 50 μM; for Activity (μM) 100, p62/actin assay activity: 100 μM
Experimental: as §1, §2

[1] = Table 8, control compound T25, second symbol
[2] = Table 8, control compound T25, first symbol
[3] = Table 6, control DMSO, second symbol
[4] = Table 6, control DMSO, first symbol

Q: What does the source list for VWNATCHIWC [Compound 59]?
A: Activity (μM) 5, LC3 assay activity (LC3; [1]): 0/0; Activity (μM) 10, LC3 assay activity (LC3; [1]): 0/0; Activity (μM) 30, LC3 assay activity (LC3; [1]): 0/0; Activity (μM) 5, p62/actin assay activity (p62; [2]): 0/0; Activity (μM) 10, p62/actin assay activity (p62; [2]): 0/0; Activity (μM) 30, p62/actin assay activity (p62; [2]): 0/0

Q: Which results are given for VCNACFHIWH [Compound 74]?
A: Activity (μM) 30, LC3 assay activity (LC3; [1]): ++; Activity (μM) 50, LC3 assay activity (LC3; [1]): +++/+++; Activity (μM) 10, starred cell, LC3 assay activity (LC3; Table 8, 10 μM marked * (footnote: data taken at 20 instead of 30 μM), second symbol): +; Activity (μM) 30, p62/actin assay activity (p62; [2]): 0; Activity (μM) 50, p62/actin assay activity (p62; [2]): +++/+++; Activity (μM) 10, starred cell, p62/actin assay activity (p62; Table 8, 10 μM marked * (footnote: data taken at 20 instead of 30 μM), first symbol): 0

Q: What does the source list for “VWNATFHIWHD [62] ({c(FΦRRRRE)}-VWNATFHIWHD; not fully specified; printed as R1 cyclic c(FΦRRRRE) attached) [Compound 62]”?
A: Activity (μM) 10, LC3 assay activity (LC3; [1]): +++; Activity (μM) 30, starred cell, LC3 assay activity (LC3; Table 8, *Data taken at 20 instead of 30 μM, second symbol): +++/+++*; Activity (μM) 10, p62/actin assay activity (p62; [2]): ++; Activity (μM) 30, starred cell, p62/actin assay activity (p62; Table 8, *Data taken at 20 instead of 30 μM, first symbol): +++/+++*

Q: Which results are given for VCNACFHIWH [Compound 55]?
A: Activity (μM) 10, LC3 assay activity (LC3; [1]): 0/0; Activity (μM) 30, LC3 assay activity (LC3; [1]): 0; Activity (μM) 50, LC3 assay activity (LC3; [1]): 0; Activity (μM) 10, p62/actin assay activity (p62; [2]): 0/0; Activity (μM) 30, p62/actin assay activity (p62; [2]): ++; Activity (μM) 50, p62/actin assay activity (p62; [2]): +++

Q: For VCNATCHIWH [Compound 33], which “Activity (μM) 5, LC3 assay activity” value (LC3; [1]) is on record?
A: Its value is 0/0.

Q: What about the “Activity (μM) 10, LC3 assay activity” value (LC3; [1]) of the same sequence?
A: The value was “+”.

Q: And the “Activity (μM) 30, LC3 assay activity” value (LC3; [1])?
A: The value was “++”.

Q: What about the “Activity (μM) 50, LC3 assay activity” value (LC3; [1]) of the same sequence?
A: Its value is “+++/+++”.

Q: What about the “Activity (μM) 100, LC3 assay activity” value (LC3; [1]) of the same sequence?
A: The value was “+++/+++”.

Q: What about the “Activity (μM) 5, p62/actin assay activity” value (p62; [2]) of the same sequence?
A: Its value is 0/0.

Q: What about the “Activity (μM) 10, p62/actin assay activity” value (p62; [2]) of the same sequence?
A: The value was 0.

Q: And the “Activity (μM) 30, p62/actin assay activity” value (p62; [2])?
A: The value was “+++”.

Q: And the “Activity (μM) 50, p62/actin assay activity” value (p62; [2])?
A: The value was “+++/+++”.

Q: And the “Activity (μM) 100, p62/actin assay activity” value (p62; [2])?
A: Its value is “+++/+++”.

Q: Which “Activity (μM) 50, LC3 assay activity” value (LC3; [1]) does the source give for VCNACFHIWH [Compound 52] here?
A: Its value is “+”.

Q: And the “Activity (μM) 100, LC3 assay activity” value (LC3; [1])?
A: The value was “+”.

Q: And the “Activity (μM) 50, p62/actin assay activity” value (p62; [2])?
A: The value was 0.

Q: What about the “Activity (μM) 100, p62/actin assay activity” value (p62; [2]) of the same sequence?
A: The value was 0.

Q: Which results are given for “VCNATCHIWR (V[dC]NAT[dC]HIWR; cysteine pairing not given here) [Compound 38]”?
A: Activity (μM) 50, LC3 assay activity (LC3; [1]): 0/0; Activity (μM) 100, LC3 assay activity (LC3; [1]): 0/0; Activity (μM) 50, p62/actin assay activity (p62; [2]): 0/0; Activity (μM) 100, p62/actin assay activity (p62; [2]): 0/0

Q: What does the source list for VCNATCHIWH [Compound 22]?
A: Activity (μM) 10, LC3 assay activity (LC3; [3]): +; Activity (μM) 30, LC3 assay activity (LC3; [3]): +; Activity (μM) 50, LC3 assay activity (LC3; [3]): ++; Activity (μM) 100, LC3 assay activity (LC3; [3]): +; Activity (μM) 10, p62/actin assay activity (p62; [4]): +++; Activity (μM) 30, p62/actin assay activity (p62; [4]): +++; Activity (μM) 50, p62/actin assay activity (p62; [4]): +++; Activity (μM) 100, p62/actin assay activity (p62; [4]): +++

Q: What does the source list for VCNATCHIWH [Compound 20]?
A: Activity (μM) 10, LC3 assay activity (LC3; [3]): ++/++; Activity (μM) 30, LC3 assay activity (LC3; [3]): ++; Activity (μM) 50, LC3 assay activity (LC3; [3]): ++; Activity (μM) 100, LC3 assay activity (LC3; [3]): ++; Activity (μM) 10, p62/actin assay activity (p62; [4]): ++/++; Activity (μM) 30, p62/actin assay activity (p62; [4]): +++; Activity (μM) 50, p62/actin assay activity (p62; [4]): +++; Activity (μM) 100, p62/actin assay activity (p62; [4]): +++

Q: VCNATCHIWH [Compound 23] was tested. Which “Activity (μM) 10, LC3 assay activity” value (LC3; [3]) did it give?
A: Its value is 0.

Q: And the “Activity (μM) 30, LC3 assay activity” value (LC3; [3])?
A: The value was “++/++”.

Q: What about the “Activity (μM) 50, LC3 assay activity” value (LC3; [3]) of the same sequence?
A: Its value is “++”.

Q: And the “Activity (μM) 100, LC3 assay activity” value (LC3; [3])?
A: The value was “++”.

Q: And the “Activity (μM) 10, p62/actin assay activity” value (p62; [4])?
A: The value was “+”.

Q: And the “Activity (μM) 30, p62/actin assay activity” value (p62; [4])?
A: Its value is “++/++”.

Q: What about the “Activity (μM) 50, p62/actin assay activity” value (p62; [4]) of the same sequence?
A: The value was “+++”.

Q: What about the “Activity (μM) 100, p62/actin assay activity” value (p62; [4]) of the same sequence?
A: Its value is “+++”.

Q: What does the source list for “VCNATCRIWR (V[dC]NAT[dC]RIWR; not fully specified (C-terminus); cysteine pairing not given here) [Compound 42]”?
A: Activity (μM) 50, LC3 assay activity (LC3; [1]): 0/0; Activity (μM) 100, LC3 assay activity (LC3; [1]): 0/0; Activity (μM) 50, p62/actin assay activity (p62; [2]): 0/0; Activity (μM) 100, p62/actin assay activity (p62; [2]): 0/0

Q: Which “Activity (μM) 10, LC3 assay activity” value (LC3; Table 3, control vehicle, second symbol of cell) does the source give for VCNACFHIWH [Compound 9] here?
A: The value was 0/0.

Q: And the “Activity (μM) 20, LC3 assay activity” value (LC3; 20 μM, Table 3, control vehicle, second symbol)?
A: Its value is 0/0.

Q: And the “Activity (μM) 50, LC3 assay activity” value (LC3; Table 3, control vehicle, second symbol)?
A: The value was 0/0.

Q: And the “Activity (μM) 10, p62/actin assay activity” value (p62; Table 3, control vehicle, first symbol of cell)?
A: The value was 0/0.

Q: What about the “Activity (μM) 20, p62/actin assay activity” value (p62; 20 μM, Table 3, control vehicle, first symbol) of the same sequence?
A: Its value is 0/0.

Q: What about the “Activity (μM) 50, p62/actin assay activity” value (p62; Table 3, control vehicle, first symbol) of the same sequence?
A: The value was 0/0.
